Assay results taken from patent US20050112573A1, “Method of detecting toxic substance” (priority 2001, published 2005).

Test system: yeast genes (level of expressed mRNA)
Assay: DNA chip analysis of expressed mRNA of yeast genes after 2 h culture with a toxic chemical substance
Type: cell-based, Saccharomyces cerevisiae S288C
Settings: for The level of expressed mRNA in the presence of chemical substance/ (ratio to absence of chemical substance): stress protein genes, DNA chip; for The level of expressed mRNA in the presence of chemical substance/ in its absence, gene YPR184W: yeast gene YPR184W
Method: Yeast (Saccharomyces cerevtisiae S288C (α SUC2mal mel gap2 CUP1)) were cultured at 25° C. on YPD medium (yeast extract 1%, polypepton 2%, glucose 2%). One of toxic chemical substances was added to the cell at logarithmic growth phase, and the cell was further cultured for two hours. Cell was cultured without any chemical substance in the same condition, and was used as control. Concentrations of the chemical substances were defined to inhibit the growth of the yeast but not lead to death.
After the completion of cultivation, the culture was centrifuged to collect the cells. To the cells, sodium acetate buffer (50 mM sodium acetate, 10 mM EDTA, 1% SDS) was added, and the mixture was shaken at 65° C. for five minutes, followed by returning to room temperature, and obtaining the supernatant, which procedure was repeated two times. To the supernatant, ½ amount of a solution of phenol/chloroform was added, and the mixture was centrifuged to give a supernatant, which was added with an equal amount of chloroform, and the mixture was centrifuged to give a supernatant. To the supernatant, an equal amount of isopropanol containing 0.3 M sodium acetate was added, and the mixture was allowed to stand at room temperature for 30 minutes, after which the mixture was centrifuged to give a sediment of the whole RNAs. Seventy % ethanol was added to the sediment, and the mixture was again centrifuged to give a sediment, which was then dried and dissolved in water. mRNA was isolated from the whole RNAs as followings. In view of the fact that a poly A chain is attached to the 3′ terminus of mRNA, a polynucleotide having a poly T structure which was immobilized on the surface of latex beads was used to trap the mRNA, and then the mRNA was washed and eluted with spine column (Oligotex-dT30<Super>mRNA Purification Kit, Takara). Reverse transcription of the mRNA was conducted with a reverse transcriptase (Super Script II Reverse Transcriptase; catalogue No. 18064-014, GibcoBRL) using fluorescence-labeled nucleotides to give cDNAs that were introduced with Cy3-dUTP or Cy5-dUTP during the reverse transcription.
The labeled cDNAs were dissolved in TE buffer (10 mM Tris-HCl/1 mM EDTA, pH8.0), and the solution was dropped on the DNA chip containing the whole genes of yeast (DNA Chip Research Inc. Japan) so that the cDNAs were hybridized on the DNA chip at 65° C. for over 12 hours. The fluoresces intensity of the DNA chip was read with a scanner, and the ratio relative to the fluorescence intensity resulting from the absence of chemical substance was estimated as the following, which is shown in Tables 1 to 9: [formula]
In the Tables, “Intensity” indicated in the rightmost column is a value of the level of expressed mRNA of each gene in control cells as divided by the average level of the expressions of the whole genes.

S=C([S-])NCCNC(=S)[S-].[Zn+2] [(11), zinc N,N′-ethylenebis(dithiocarbamate)]
The level of expressed mRNA in the presence of chemical substance/ (in its absence), gene YMR293C (yeast gene YMR293C, ratio of DNA chip fluorescence intensity to that without chemical substance): 0.4 | The level of expressed mRNA in the presence of chemical substance/The level of expressed mRNA in the absence of chemical substance (yeast gene YMR314W): 1.8 | The level of expressed mRNA in the presence of chemical substance/The level of expressed mRNA in the absence of chemical substance (yeast gene YNL006W): 1.1 | The level of expressed mRNA in the presence of chemical substance/The level of expressed mRNA in the absence of chemical substance (yeast gene YNL007C): 1.3 | The level of expressed mRNA in the presence of chemical substance/ (in its absence), gene YNL025C (yeast gene YNL025C, ratio of DNA chip fluorescence intensity to that without chemical substance): 1.1 | The level of expressed mRNA in the presence of chemical substance/ (ratio to absence of chemical substance) (yeast gene YNL064C): 0.9 | The level of expressed mRNA in the presence of chemical substance/ (ratio to absence), gene YNL073W (yeast gene YNL073W, mitochondria-located protein genes, 2 h culture with chemical): 1.1 | The level of expressed mRNA in the presence of chemical substance/The level of expressed mRNA in the absence of chemical substance (yeast gene YNL093W): 1.6 | The level of expressed mRNA in the presence of chemical substance/ (in its absence), gene YNL192W (yeast gene YNL192W, ratio of DNA chip fluorescence intensity to that without chemical substance): 1.1 | The level of expressed mRNA in the presence of chemical substance/The level of expressed mRNA in the absence of chemical substance (yeast gene YNL333W): 2.0 | The level of expressed mRNA in the presence of chemical substance/The level of expressed mRNA in the absence of chemical substance (yeast gene YNR010W): 1.4 | The level of expressed mRNA in the presence of chemical substance/The level of expressed mRNA in the absence of chemical substance (yeast gene YNR069C): 2.5 | The level of expressed mRNA in the presence of chemical substance/ (in its absence), gene YNR072W (yeast gene YNR072W, ratio of DNA chip fluorescence intensity to that without chemical substance): 1.4 | The level of expressed mRNA in the presence of chemical substance/ (ratio to absence of chemical substance) (yeast gene YNR076W): 1.4 | The level of expressed mRNA in the presence of chemical substance/The level of expressed mRNA in the absence of chemical substance (yeast gene YOL013C): 1.4 | The level of expressed mRNA in the presence of chemical substance/ (ratio to absence), gene YOL096C (yeast gene YOL096C, mitochondria-located protein genes, 2 h culture with chemical): 1.2 | The level of expressed mRNA in the presence of chemical substance/ (in its absence), gene YOL096C (yeast gene YOL096C, ratio of DNA chip fluorescence intensity to that without chemical substance): 1.2 | The level of expressed mRNA in the presence of chemical substance/ (in its absence), gene YOL108C (yeast gene YOL108C, ratio of DNA chip fluorescence intensity to that without chemical substance): 1.1 | The level of expressed mRNA in the presence of chemical substance/ (in its absence), gene YOL116W (yeast gene YOL116W, ratio of DNA chip fluorescence intensity to that without chemical substance): 1.0 | The level of expressed mRNA in the presence of chemical substance/ (ratio to absence of chemical substance) (yeast gene YOL161C): 1.5 | The level of expressed mRNA in the presence of chemical substance/The level of expressed mRNA in the absence of chemical substance (yeast gene YOL164W): 1.0 | The level of expressed mRNA in the presence of chemical substance/ (ratio to absence of chemical substance) (yeast gene YOR008C): 1.0 | The level of expressed mRNA in the presence of chemical substance/ (ratio to absence of chemical substance) (yeast gene YOR009W): 1.4 | The level of expressed mRNA in the presence of chemical substance/ (ratio to absence of chemical substance) (yeast gene YOR010C): 1.2 | The level of expressed mRNA in the presence of chemical substance/The level of expressed mRNA in the absence of chemical substance (yeast gene YOR036W): 1.3 | The level of expressed mRNA in the presence of chemical substance/ (in its absence), gene YOR103C (yeast gene YOR103C, ratio of DNA chip fluorescence intensity to that without chemical substance): 1.0 | The level of expressed mRNA in the presence of chemical substance/The level of expressed mRNA in the absence of chemical substance (yeast gene YOR117W): 1.2 | The level of expressed mRNA in the presence of chemical substance/The level of expressed mRNA in the absence of chemical substance (yeast gene YOR124C): 1.2 | The level of expressed mRNA in the presence of chemical substance/The level of expressed mRNA in the absence of chemical substance (yeast gene YOR132W): 1.3 | The level of expressed mRNA in the presence of chemical substance/The level of expressed mRNA in the absence of chemical substance (yeast gene YOR157C): 1.6 | The level of expressed mRNA in the presence of chemical substance/ (in its absence), gene YOR180C (yeast gene YOR180C, ratio of DNA chip fluorescence intensity to that without chemical substance): 0.6 | The level of expressed mRNA in the presence of chemical substance/The level of expressed mRNA in the absence of chemical substance (yeast gene YOR181W): 1.0 | The level of expressed mRNA in the presence of chemical substance/The level of expressed mRNA in the absence of chemical substance (yeast gene YOR185C): 1.2 | The level of expressed mRNA in the presence of chemical substance/The level of expressed mRNA in the absence of chemical substance (yeast gene YOR198C): 1.4 | The level of expressed mRNA in the presence of chemical substance/ (in its absence), gene YOR251C (yeast gene YOR251C, ratio of DNA chip fluorescence intensity to that without chemical substance): 1.0 | The level of expressed mRNA in the presence of chemical substance/The level of expressed mRNA in the absence of chemical substance (yeast gene YOR259C): 1.0 | The level of expressed mRNA in the presence of chemical substance/The level of expressed mRNA in the absence of chemical substance (yeast gene YOR261C): 2.1 | The level of expressed mRNA in the presence of chemical substance/The level of expressed mRNA in the absence of chemical substance (yeast gene YOR288C): 1.4 | The level of expressed mRNA in the presence of chemical substance/ (ratio to absence), gene YOR316C (yeast gene YOR316C, mitochondria-located protein genes, 2 h culture with chemical): 2.4 | The level of expressed mRNA in the presence of chemical substance/ (in its absence), gene YOR348C (yeast gene YOR348C, ratio of DNA chip fluorescence intensity to that without chemical substance): 1.1 | The level of expressed mRNA in the presence of chemical substance/The level of expressed mRNA in the absence of chemical substance (yeast gene YOR355W): 1.2 | The level of expressed mRNA in the presence of chemical substance/ (in its absence), gene YOR363C (yeast gene YOR363C, ratio of DNA chip fluorescence intensity to that without chemical substance): 1.2 | The level of expressed mRNA in the presence of chemical substance/The level of expressed mRNA in the absence of chemical substance (yeast gene YOR383C): 1.4 | The level of expressed mRNA in the presence of chemical substance/ (ratio to absence), gene YPL040C (yeast gene YPL040C, mitochondria-located protein genes, 2 h culture with chemical): 0.9 | The level of expressed mRNA in the presence of chemical substance/ (ratio to absence of chemical substance) (yeast gene YPL059W): 1.6 | The level of expressed mRNA in the presence of chemical substance/The level of expressed mRNA in the absence of chemical substance (yeast gene YPL089C): 0.9 | The level of expressed mRNA in the presence of chemical substance/ (ratio to absence), gene YPL134C (yeast gene YPL134C, mitochondria-located protein genes, 2 h culture with chemical): 1.7 | The level of expressed mRNA in the presence of chemical substance/ (ratio to absence of chemical substance) (yeast gene YPL140C): 0.8 | The level of expressed mRNA in the presence of chemical substance/ (in its absence), gene YPL148C (yeast gene YPL148C, ratio of DNA chip fluorescence intensity to that without chemical substance): 3.5 | The level of expressed mRNA in the presence of chemical substance/The level of expressed mRNA in the absence of chemical substance (yeast gene YPL149W): 1.2 | The level of expressed mRNA in the presence of chemical substance/The level of expressed mRNA in the absence of chemical substance (yeast gene YPL154C): 1.8 | The level of expressed mRNA in the presence of chemical substance/ (ratio to absence of chemical substance) (yeast gene YPL194W): 0.9 | The level of expressed mRNA in the presence of chemical substance/ (ratio to absence of chemical substance) (yeast gene YPR005C): 0.4 | The level of expressed mRNA in the presence of chemical substance/The level of expressed mRNA in the absence of chemical substance (yeast gene YPR103W): 0.9 | The level of expressed mRNA in the presence of chemical substance/The level of expressed mRNA in the absence of chemical substance (yeast gene YPR108W): 1.8 | The level of expressed mRNA in the presence of chemical substance/ (in its absence), gene YPR165W (yeast gene YPR165W, ratio of DNA chip fluorescence intensity to that without chemical substance): 1.0 | The level of expressed mRNA in the presence of chemical substance/ in its absence, gene YPR184W (energy system protein genes, 2 h culture with the chemical, ratio to control without chemical): 3.6 | The level of expressed mRNA in the presence of chemical substance/ in its absence, gene YPR184W (ratio of DNA chip fluorescence intensity to that without chemical substance): 3.6
